Laboratory results published in patent publication US11191769B2, “Fused thiophene compounds” (BioTheryX, Inc., priority 2018, dated 2021).
Values belong to the molecule of their own block, whether it stands above or below them.

Key:
Assay type in all cases: cell-based
TNFα = assay: TNF-α inhibition assay, LPS-induced PBMCs or CD14+ monocytes, Meso Scale; settings: 1 h pretreatment, 100 ng/mL LPS 18-24 h, supernatant
Experimental: (§1) Either frozen primary blood mononuclear cells (PBMCs) or frozen CD14+ mobilized peripheral blood monocytes were purchased from AllCells (PB003F, Normal Peripheral Blood MNC (Alameda, Calif.)). Cells were quick thawed, washed 1-time with RPMI-1640 (10% FBS/1% Pen-Strep) and plated in 96 well plates at 200,000 cells per well. Cells were pretreated with DMSO only or with the indicated compound for 1 h and then induced with 100 ng/mL lipopolysaccharide (LPS) for 18-24 h. The supernatant was analyzed for IL-1β, IL-6, and TNFα, using Meso Scale assay according to manufacturer's protocol. The negative control wells were treated with DMSO.
(§2) In each of Tables 5-7, the % inhibition values are reported as “A”, “B”, “C”, or “D”. “A” represents a % inhibition value of less than 50% (value <50%). “B” represents a % inhibition value of equal to or more than 50% and less than 70% (50%≤value<70%). “C” represents a % inhibition value of equal to or more than 70% and less than 90% (70%≤value<90%). “D” represents a % inhibition value of equal or more than 90% (value≥90%). In Table 8, the fold-change values are reported as “A”, “B”, “C”, or “D”. “A” represents a fold-change value of equal to or less than 1 (value≤1). “B” represents a fold-change value of more than 1 and equal to or less than 2 (1<value≤2). “C” represents a fold-change value of more than 2 and equal to or less than 3 (2<value≤3). “D” represents a fold-change value of more than 3 (value>3).

IL-2 = IL-2 fold-change assay, anti-CD3 stimulated PBMCs, Mesoscale; settings: PBMC, PBMCs on anti-human CD3 (OKT3) coated plates, 24 h, fold difference from the DMSO control
Experimental: For the IL-2 analysis, 96 well plates were precoated with 1 μg/mL anti-human CD3 antibody (OKT3, eBioscience Inc., San Diego, Calif.). After washing with PBS, the indicated compound was added (50 μL/well) followed by PBMCs diluted at 3-4 million cells/mL (150 μL/well). Plates were incubated for 24 h and the supernatants collected for Mesoscale IL-2 analysis. IL-2 activity is measured as fold difference from the DMSO control.
as §2

IKAROS = biological target: T1, IKAROS (Homo sapiens, UniProt Q13422+Q96SW2); assay: IKAROS degradation assay (Western blot, MV-4-11 cells); settings: 6-8 hours; for IKAROS % degradation at 1 µM: MV4-11, 1 μM
T1 construct: endogenous in cells; host or cells: MV-4-11
T1 sequence (Q13422 whole entry): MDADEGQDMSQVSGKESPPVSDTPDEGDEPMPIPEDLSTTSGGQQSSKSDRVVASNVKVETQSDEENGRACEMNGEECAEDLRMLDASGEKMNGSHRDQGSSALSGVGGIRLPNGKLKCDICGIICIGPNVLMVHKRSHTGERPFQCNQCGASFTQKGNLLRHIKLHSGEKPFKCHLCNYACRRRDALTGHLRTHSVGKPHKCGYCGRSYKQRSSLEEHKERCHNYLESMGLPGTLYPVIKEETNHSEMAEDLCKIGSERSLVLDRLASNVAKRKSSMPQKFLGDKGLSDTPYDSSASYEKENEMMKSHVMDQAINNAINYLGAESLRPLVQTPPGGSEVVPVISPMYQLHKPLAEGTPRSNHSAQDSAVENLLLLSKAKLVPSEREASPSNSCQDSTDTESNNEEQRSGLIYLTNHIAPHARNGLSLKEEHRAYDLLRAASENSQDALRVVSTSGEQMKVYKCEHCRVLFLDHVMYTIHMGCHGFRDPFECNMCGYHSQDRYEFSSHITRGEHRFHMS
T1 sequence (Q96SW2 whole entry): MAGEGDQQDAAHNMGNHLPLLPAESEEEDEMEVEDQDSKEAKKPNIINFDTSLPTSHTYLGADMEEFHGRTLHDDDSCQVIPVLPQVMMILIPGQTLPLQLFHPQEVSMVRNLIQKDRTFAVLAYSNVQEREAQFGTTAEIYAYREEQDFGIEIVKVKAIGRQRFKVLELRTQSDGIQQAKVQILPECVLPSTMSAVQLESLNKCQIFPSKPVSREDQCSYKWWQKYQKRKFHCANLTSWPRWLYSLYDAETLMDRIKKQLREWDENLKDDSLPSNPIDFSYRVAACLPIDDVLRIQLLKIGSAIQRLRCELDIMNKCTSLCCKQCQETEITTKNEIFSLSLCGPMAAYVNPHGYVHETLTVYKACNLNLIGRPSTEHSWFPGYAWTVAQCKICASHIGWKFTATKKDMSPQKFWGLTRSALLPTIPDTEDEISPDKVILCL
T1 sequence (Q16531 whole entry partner): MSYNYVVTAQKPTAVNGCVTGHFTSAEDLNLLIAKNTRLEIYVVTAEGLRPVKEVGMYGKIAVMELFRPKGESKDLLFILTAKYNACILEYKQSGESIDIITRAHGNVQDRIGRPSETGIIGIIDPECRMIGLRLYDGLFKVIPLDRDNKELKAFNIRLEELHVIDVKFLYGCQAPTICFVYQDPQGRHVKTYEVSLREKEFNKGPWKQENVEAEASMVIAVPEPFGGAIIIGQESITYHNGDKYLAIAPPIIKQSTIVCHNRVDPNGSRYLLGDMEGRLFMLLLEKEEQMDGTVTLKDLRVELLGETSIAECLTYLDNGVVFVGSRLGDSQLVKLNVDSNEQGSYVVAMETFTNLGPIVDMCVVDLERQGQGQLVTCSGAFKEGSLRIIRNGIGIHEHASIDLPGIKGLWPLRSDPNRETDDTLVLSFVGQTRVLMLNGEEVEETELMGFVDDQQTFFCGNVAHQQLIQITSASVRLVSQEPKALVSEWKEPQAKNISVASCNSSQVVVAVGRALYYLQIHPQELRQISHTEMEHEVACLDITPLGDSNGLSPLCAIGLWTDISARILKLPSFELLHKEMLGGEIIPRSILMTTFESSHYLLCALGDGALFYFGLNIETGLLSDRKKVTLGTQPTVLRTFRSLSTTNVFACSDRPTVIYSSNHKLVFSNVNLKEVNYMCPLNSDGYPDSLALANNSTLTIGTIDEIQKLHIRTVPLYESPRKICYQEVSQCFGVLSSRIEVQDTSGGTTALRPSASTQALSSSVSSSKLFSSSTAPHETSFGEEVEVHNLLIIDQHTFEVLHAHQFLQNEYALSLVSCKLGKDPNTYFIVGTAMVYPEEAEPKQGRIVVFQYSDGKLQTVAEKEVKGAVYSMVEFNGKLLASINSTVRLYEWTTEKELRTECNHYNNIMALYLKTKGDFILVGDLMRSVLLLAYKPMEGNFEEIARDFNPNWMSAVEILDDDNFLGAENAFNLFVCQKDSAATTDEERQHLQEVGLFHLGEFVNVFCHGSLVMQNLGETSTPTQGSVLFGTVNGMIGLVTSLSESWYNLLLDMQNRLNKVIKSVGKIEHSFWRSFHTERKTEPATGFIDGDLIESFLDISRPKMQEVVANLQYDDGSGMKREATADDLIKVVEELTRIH
Experimental: (§3) MV-4-11 cells were grown in RPMI 1640 media supplemented with 10% fetal bovine serum, streptomycin and penicillin.
(§4) Cells were cultured at approximately 10^6 cells per mL and incubated in DMSO or the indicated compound for 6-8 hours. Whole cell extracts were prepared using RIPA buffer according to manufacturer's protocol (Pierce). Briefly, 3×10^6 cells were washed once in PBS, the cell pellets were resuspended in RIPA buffer and allowed to incubate for 15 minutes on ice. Cells debris was removed by centrifugation and the cleared whole cell lysates were transferred to new tubes for further analysis.
(§5) For Western blot analysis, whole cell protein extracts were separated on 4-12% SDS-polyacrylamide gels, transferred to nitrocellulose and probed with the indicated primary antibodies. Membranes were subsequently washed and probed with the appropriate IRDye secondary antibodies (LI-COR). The signal was detected using the Odyssey Imaging System (LI-COR).
(§6) The following antibodies were used in these studies: Anti-eRF3/GSPT1: Abcam, ab126090 (Cambridge, Mass.); Anti-Ikaros: Abcam, ab191394 (Cambridge, Mass.); Anti-CK1α: Abcam, ab108296 (Cambridge, Mass.); β-actin (8H10D10) mouse monoclonal antibody: Cell Signaling Technology, #3700 (Danvers, Mass.); IRDye 680RD Goat anti-rabbit antibody: LI-COR, 926-68071 (Lincoln, Nebr.); IRDye 800CW Goat anti-mouse antibody: LI-COR, 926-32210 (Lincoln, Nebr.).
(§7) In each of Tables 1-4, the % degradation values are reported as “A”, “B”, “C”, or “D”. “A” represents a % degradation value of less than 25% (value<25%). “B” represents a % degradation value of equal to or more than 25% and less than 50% (25%≤value<50%). “C” represents a % degradation value of equal to or more than 50% and less than 75% (50%≤value <75%). “D” represents a % degradation value of equal to or more than 75% (value≥75%).

MOLM-13 cells = assay: MOLM-13 cell viability assay (CellTiter-Glo); settings: Homo sapiens, MOLM-13, 72 h, 3 days, % of DMSO control
Experimental: MOLM-13 cells were cultured in RPMI 1640 media supplemented with 10% fetal bovine serum, streptomycin and penicillin, and were plated in white walled 96-well plates at 2500 cells/well. Cells were incubated in DMSO (control) or the indicated compound for 3 days at 37° C. and 5% CO2. Following the incubation period, 100 μL of CellTiterGlow (CTG) reagent (CellTiter-Glo® Luminescent Cell Viability Assay, Promega (Madison, Wis.)) was added to each well. Following a 10 minutes incubation with shaking, luminescence was measured using the EnVision Multimode plate reader.
The MOLM-13 cell viability values as % DMSO are reported as “A”, “B”, “C”, or “D”. “A” represents a % viability value of less than 25% (value<25%). “B” represents a % viability value of equal to or more than 25% and less than 50% (25%≤value<50%). “C” represents a % viability value of equal to or more than 50% and less than 75% (50%≤value<75%). “D” represents a % viability value of equal or more than 75% (value≥75%).

CK1α = biological target: T2, CK1α (Homo sapiens, UniProt P48729+Q96SW2); assay: CK1α degradation assay (Western blot, MV-4-11 cells); settings: MV4-11, 6-8 hours
T2 construct: Whole cell extracts were prepared using RIPA buffer; endogenous in cells; host or cells: MV-4-11
T2 sequence (P48729 whole entry): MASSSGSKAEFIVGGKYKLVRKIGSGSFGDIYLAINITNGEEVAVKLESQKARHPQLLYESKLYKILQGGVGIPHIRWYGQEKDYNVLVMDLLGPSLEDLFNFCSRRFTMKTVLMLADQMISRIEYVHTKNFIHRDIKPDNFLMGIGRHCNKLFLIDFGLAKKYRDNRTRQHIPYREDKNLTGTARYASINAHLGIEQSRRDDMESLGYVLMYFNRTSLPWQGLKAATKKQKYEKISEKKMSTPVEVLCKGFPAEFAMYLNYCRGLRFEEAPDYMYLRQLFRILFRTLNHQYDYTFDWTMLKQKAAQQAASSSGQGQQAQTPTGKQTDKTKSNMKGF
T2 sequence (Q96SW2 whole entry): as the sequence (Q96SW2 whole entry) above
T2 sequence (Q16531 whole entry partner): as the sequence (Q16531 whole entry partner) above
Experimental: as §3, §4, §5, §6, §7

IL-1β = IL-1β inhibition assay, LPS-induced PBMCs or CD14+ monocytes, Meso Scale; settings: 1 h pretreatment, 100 ng/mL LPS 18-24 h, supernatant, read-out: I1-1β % Inhibition at 10 μM
Experimental: as §1, §2

IL-6 = IL-6 inhibition assay, LPS-induced PBMCs or CD14+ monocytes, Meso Scale; settings: 1 h pretreatment, 100 ng/mL LPS 18-24 h, supernatant
Experimental: as §1, §2

Compound: O=C1CC[C@H](N2Cc3cc(COc4ccc(CN5CCOCC5)cc4)sc3C2=O)C(=O)N1 [Compound 16, (S)-3-(2-((4-(morpholinomethyl)phenoxy)methyl)-6-oxo-4H-thieno[2,3-c]pyrrol-5(6H)-yl)piperidine-2,6-dione]
- inhibition at 10 µM (TNFα): < 50%
- fold induction at 10 µM (IL-2): ≤ 1
- IKAROS % Degradation at 10 μM (IKAROS): A (“A” represents a % degradation value of less than 25% (value<25%))

Compound: O=C1CC[C@H](N2Cc3c(COc4ccc(CN5CCOCC5)cc4)csc3C2=O)C(=O)N1 [Compound 5, (S)-3-(3-((4-(morpholinomethyl)phenoxy)methyl)-6-oxo-4H-thieno[2,3-c]pyrrol-5(6H)-yl)piperidine-2,6-dione]
- fold induction at 10 µM (IL-2): 1 to 2

Compound: O=C1CC[C@H](N2Cc3c(CNc4ccc(CN5CCOCC5)cc4)csc3C2=O)C(=O)N1 [Compound 11, (S)-3-(3-(((4-(morpholinomethyl)phenyl)amino)methyl)-6-oxo-4H-thieno[2,3-c]pyrrol-5(6H)-yl)piperidine-2,6-dione]
- inhibition at 10 µM (TNFα): < 50%
- fold induction at 10 µM (IL-2): 1 to 2
- viability at 10 µM (MOLM-13 cells): < 25%

- IKAROS % degradation at 1 µM (IKAROS): 50 to 75%
- percent degradation at 1 µM (CK1α): ≥ 75%
Compound: CC1CN(Cc2ccc(OCc3scc4c3CN([C@H]3CCC(=O)NC3=O)C4=O)cc2)CC(C)O1 (stereo partly drawn) [Compound 17, (3S)-3-(1-((4-((2,6-dimethylmorpholino)methyl)phenoxy)methyl)-4-oxo-4H-thieno[3,4-c]pyrrol-5(6H)-yl)piperidine-2,6-dione]
- inhibition at 10 µM (TNFα): > 90%
- fold induction at 10 µM (IL-2): 1 to 2
- viability at 10 µM (MOLM-13 cells): 50 to 75%
- inhibition at 10 µM (IL-1β): 70 to 90%
- inhibition at 10 µM (IL-6): < 50%

Compound: O=C1CC[C@H](N2Cc3c(NCc4ccc(CN5CCOCC5)cc4)csc3C2=O)C(=O)N1 [Compound 3, (S)-3-(3-((4-(morpholinomethyl)benzyl)amino)-6-oxo-4H-thieno[2,3-c]pyrrol-5(6H)-yl)piperidine-2,6-dione]
- inhibition at 10 µM (TNFα): < 50%
- fold induction at 10 µM (IL-2): ≤ 1
- IKAROS % Degradation at 10 μM (IKAROS): C (“C” represents a % degradation value of equal to or more than 50% and less than 75% (50%≤value <75%))

Compound: O=C1CC[C@H](N2Cc3c(csc3CNc3ccc(CN4CCOCC4)cc3)C2=O)C(=O)N1 [Compound 10, (S)-3-(1-(((4-(morpholinomethyl)phenyl)amino)methyl)-4-oxo-4H-thieno[3,4-c]pyrrol-5(6H)-yl)piperidine-2,6-dione]
- inhibition at 10 µM (TNFα): > 90%
- fold induction at 10 µM (IL-2): 2 to 3
- viability at 10 µM (MOLM-13 cells): 25 to 50%
- inhibition at 10 µM (IL-1β): 70 to 90%
- inhibition at 10 µM (IL-6): < 50%

- IKAROS % degradation at 1 µM (IKAROS): 25 to 50%
Compound: O=C1CC[C@H](N2Cc3c(csc3CCc3ccc(CN4CCOCC4)cc3)C2=O)C(=O)N1 [Compound 6, (S)-3-(1-(4-(morpholinomethyl)phenethyl)-4-oxo-4H-thieno[3,4-c]pyrrol-5(6H)-yl)piperidine-2,6-dione]
- inhibition at 10 µM (TNFα): 70 to 90%
- fold induction at 10 µM (IL-2): 2 to 3
- inhibition at 10 µM (IL-1β): 70 to 90%
- inhibition at 10 µM (IL-6): < 50%

- percent degradation at 1 µM (CK1α): ≥ 75%
Compound: CN(C)Cc1ccc(OCc2scc3c2CN([C@H]2CCC(=O)NC2=O)C3=O)cc1 [Compound 18, (S)-3-(1-((4-((dimethylamino)methyl)phenoxy)methyl)-4-oxo-4H-thieno[3,4-c]pyrrol-5(6H)-yl)piperidine-2,6-dione]
- inhibition at 10 µM (TNFα): 70 to 90%
- fold induction at 10 µM (IL-2): 2 to 3
- IKAROS % Degradation at 10 μM (IKAROS): C (“C” represents a % degradation value of equal to or more than 50% and less than 75% (50%≤value <75%))
- viability at 10 µM (MOLM-13 cells): < 25%
- inhibition at 10 µM (IL-1β): 50 to 70%

Compound: O=C1CC[C@H](N2C(=O)c3csc(COc4ccc(CN5CCOCC5)cc4)c3C2=O)C(=O)N1 [Compound 20, (S)-5-(2,6-dioxopiperidin-3-yl)-1-((4-(morpholinomethyl)phenoxy)methyl)-4H-thieno[3,4-c]pyrrole-4,6(5H)-dione]
- inhibition at 10 µM (TNFα): 50 to 70%
- fold induction at 10 µM (IL-2): 1 to 2
- IKAROS % Degradation at 10 μM (IKAROS): B (“B” represents a % degradation value of equal to or more than 25% and less than 50% (25%≤value<50%))
- viability at 10 µM (MOLM-13 cells): < 25%
- inhibition at 10 µM (IL-1β): 50 to 70%

Compound: O=C1CC[C@H](N2Cc3c(csc3COc3ccc(CN4CCOCC4)cn3)C2=O)C(=O)N1 [Compound 12, (S)-3-(1-(((5-(morpholinomethyl)pyridin-2-yl)oxy)methyl)-4-oxo-4H-thieno[3,4-c]pyrrol-5(6H)-yl)piperidine-2,6-dione]
- inhibition at 10 µM (TNFα): < 50%
- fold induction at 10 µM (IL-2): 1 to 2

- IKAROS % degradation at 1 µM (IKAROS): 25 to 50%
- percent degradation at 1 µM (CK1α): 25 to 50%
Compound: O=C1CC[C@H](N2Cc3c(csc3COc3ccc(CCN4CCOCC4)cc3)C2=O)C(=O)N1 [Compound 15, (S)-3-(1-((4-(2-morpholinoethyl)phenoxy)methyl)-4-oxo-4H-thieno[3,4-c]pyrrol-5(6H)-yl)piperidine-2,6-dione]
- inhibition at 10 µM (TNFα): 70 to 90%
- fold induction at 10 µM (IL-2): > 3
- inhibition at 10 µM (IL-1β): > 90%
- inhibition at 10 µM (IL-6): 50 to 70%

- IKAROS % degradation at 1 µM (IKAROS): 25 to 50%
Compound: O=C1CC[C@H](N2Cc3c(csc3COc3ccc(CN4CCOCC4)cc3F)C2=O)C(=O)N1 [Compound 8, (S)-3-(1-((2-fluoro-4-(morpholinomethyl)phenoxy)methyl)-4-oxo-4H-thieno[3,4-c]pyrrol-5(6H)-yl)piperidine-2,6-dione]
- inhibition at 10 µM (TNFα): > 90%
- fold induction at 10 µM (IL-2): 2 to 3
- inhibition at 10 µM (IL-1β): > 90%
- inhibition at 10 µM (IL-6): 70 to 90%

Compound: O=C1CC[C@H](N2Cc3c(csc3COCc3ccc(CN4CCOCC4)cc3)C2=O)C(=O)N1 [Compound 9, (S)-3-(1-(((4-(morpholinomethyl)benzyl)oxy)methyl)-4-oxo-4H-thieno[3,4-c]pyrrol-5(6H)-yl)piperidine-2,6-dione]
- inhibition at 10 µM (TNFα): > 90%
- fold induction at 10 µM (IL-2): > 3
- inhibition at 10 µM (IL-1β): 70 to 90%
- inhibition at 10 µM (IL-6): < 50%

- IKAROS % degradation at 1 µM (IKAROS): 50 to 75%
Compound: O=C1CC[C@H](N2Cc3c(csc3COc3cccc(CN4CCOCC4)c3)C2=O)C(=O)N1 [Compound 7, (S)-3-(1-((3-(morpholinomethyl)phenoxy)methyl)-4-oxo-4H-thieno[3,4-c]pyrrol-5(6H)-yl)piperidine-2,6-dione]
- inhibition at 10 µM (TNFα): 70 to 90%
- fold induction at 10 µM (IL-2): 2 to 3
- inhibition at 10 µM (IL-1β): 70 to 90%
